# In ChEMBL document CHEMBL5331074, “Design and synthesis of new adamantyl derivatives as promising antiproliferative agents” (Eur J Med Chem, 2023):
# pIC50: −log10 of the molar value.
# Columns and labels:
# [1] = Cytotoxicity against human hTERT-HME1 cells assessed as cell growth inhibition; format: toxicity, cell-based
# [2] = Cytotoxicity against human F180 cells assessed as cell growth inhibition; format: toxicity, cell-based
# [3] = system: Panel NCI-60 (60 carcinoma cell lines); assay: Cytotoxicity against human Panel NCI-60 (60 carcinoma cell lines) assessed as mean growth inhibition; format: functional
# HT-29 [4] = assay: Antiproliferative activity against human HT-29 cells assessed as reduction in cell viability; format: functional, cell-based
# CCRF-CEM = assay: Cytotoxicity against human CCRF-CEM cells assessed as cell growth inhibition; format: functional, cell-based
# HL-60(TB) = assay: Cytotoxicity against human HL-60(TB) cells assessed as cell growth inhibition; format: functional, cell-based
# K562 = assay: Cytotoxicity against human K562 cells assessed as cell growth inhibition; format: functional, cell-based
# MOLT-4 = assay: Cytotoxicity against human MOLT-4 cells assessed as cell growth inhibition; format: functional, cell-based
# RPMI-8226 = assay: Cytotoxicity against human RPMI-8226 cells assessed as cell growth inhibition; format: functional, cell-based
# A549 = assay: Cytotoxicity against human A549 cells assessed as cell growth inhibition; format: functional, cell-based
# HOP-62 = assay: Cytotoxicity against human HOP-62 cells assessed as cell growth inhibition; format: functional, cell-based
# HOP-92 = assay: Cytotoxicity against human HOP-92 cells assessed as cell growth inhibition; format: functional, cell-based
# NCI-H226 = assay: Cytotoxicity against human NCI-H226 cells assessed as cell growth inhibition; format: functional, cell-based
# NCI-H23 = assay: Cytotoxicity against human NCI-H23 cells assessed as cell growth inhibition; format: functional, cell-based
# NCI-H460 = assay: Cytotoxicity against human NCI-H460 cells assessed as cell growth inhibition; format: functional, cell-based
# NCI-H522 = assay: Cytotoxicity against human NCI-H522 cells assessed as cell growth inhibition; format: functional, cell-based
# COLO 205 = assay: Cytotoxicity against human COLO 205 cells assessed as cell growth inhibition; format: functional, cell-based
# HCC 2998 = assay: Cytotoxicity against human HCC 2998 cells assessed as cell growth inhibition; format: functional, cell-based
# HCT-116 = assay: Cytotoxicity against human HCT-116 cells assessed as cell growth inhibition; format: functional, cell-based
# HCT-15 = assay: Cytotoxicity against human HCT-15 cells assessed as cell growth inhibition; format: functional, cell-based
# HT-29 [5] = assay: Cytotoxicity against human HT-29 cells assessed as cell growth inhibition; format: functional, cell-based
# KM12 = assay: Cytotoxicity against human KM12 cells assessed as cell growth inhibition; format: functional, cell-based
# SW-620 = assay: Cytotoxicity against human SW620 cells assessed as cell growth inhibition; format: functional, cell-based
# SF-268 = assay: Cytotoxicity against human SF-268 cells assessed as cell growth inhibition; format: functional, cell-based
# SF-539 = assay: Cytotoxicity against human SF-539 cells assessed as cell growth inhibition; format: functional, cell-based
# SNB-19 = assay: Cytotoxicity against human SNB-19 cells assessed as cell growth inhibition; format: functional, cell-based
# SNB-75 = assay: Cytotoxicity against human SNB-75 cells assessed as cell growth inhibition; format: functional, cell-based
# U-251 = assay: Cytotoxicity against human U-251 cells assessed as cell growth inhibition; format: functional, cell-based
# Malme-3M = assay: Cytotoxicity against human Malme-3M cells assessed as cell growth inhibition; format: functional, cell-based
# M14 = assay: Cytotoxicity against human M14 cells assessed as cell growth inhibition; format: functional, cell-based
# MDA-MB-435 = assay: Cytotoxicity against human MDA-MB-435 cells assessed as cell growth inhibition; format: functional, cell-based
# SK-MEL-2 = assay: Cytotoxicity against human SK-MEL-2 cells assessed as cell growth inhibition; format: functional, cell-based
# SK-MEL-28 = assay: Cytotoxicity against human SK-MEL-28 cells assessed as cell growth inhibition; format: functional, cell-based
# SK-MEL-5 = assay: Cytotoxicity against human SK-MEL-5 cells assessed as cell growth inhibition; format: functional, cell-based
# UACC-257 = assay: Cytotoxicity against human UACC-257 cells assessed as cell growth inhibition; format: functional, cell-based
# UACC-62 = assay: Cytotoxicity against human UACC-62 cells assessed as cell growth inhibition; format: functional, cell-based
# IGROV-1 = assay: Cytotoxicity against human IGROV-1 cells assessed as cell growth inhibition; format: functional, cell-based
# OVCAR-3 = assay: Cytotoxicity against human OVCAR-3 cells assessed as cell growth inhibition; format: functional, cell-based
# OVCAR-4 = assay: Cytotoxicity against human OVCAR-4 cells assessed as cell growth inhibition; format: functional, cell-based
# OVCAR-5 = assay: Cytotoxicity against human OVCAR-5 cells assessed as cell growth inhibition; format: functional, cell-based
# OVCAR-8 = assay: Cytotoxicity against human OVCAR-8 cells assessed as cell growth inhibition; format: functional, cell-based
# NCI/ADR-RES = assay: Cytotoxicity against human NCI/ADR-RES cells assessed as cell growth inhibition; format: functional, cell-based
# SK-OV-3 = assay: Cytotoxicity against human SK-OV-3 cells assessed as cell growth inhibition; format: functional, cell-based
# 786-0 = assay: Cytotoxicity against human 786-0 cells assessed as cell growth inhibition; format: functional, cell-based
# A498 = assay: Cytotoxicity against human A498 cells assessed as cell growth inhibition; format: functional, cell-based
# ACHN = assay: Cytotoxicity against human ACHN cells assessed as cell growth inhibition; format: functional, cell-based
# CAKI-1 = assay: Cytotoxicity against human CAKI-1 cells assessed as cell growth inhibition; format: functional, cell-based
# RXF 393 = assay: Cytotoxicity against human RXF 393 cells assessed as cell growth inhibition; format: functional, cell-based
# SN12C = assay: Cytotoxicity against human SN12C cells assessed as cell growth inhibition; format: functional, cell-based
# TK-10 = assay: Cytotoxicity against human TK-10 cells assessed as cell growth inhibition; format: functional, cell-based
# UO-31 = assay: Cytotoxicity against human UO-31 cells assessed as cell growth inhibition; format: functional, cell-based
# PC-3 = assay: Cytotoxicity against human PC-3 cells assessed as cell growth inhibition; format: functional, cell-based
# DU-145 = assay: Cytotoxicity against human DU-145 cells assessed as cell growth inhibition; format: functional, cell-based
# MCF7 = assay: Cytotoxicity against human MCF7 cells assessed as cell growth inhibition; format: functional, cell-based
# MDA-MB-231 = assay: Cytotoxicity against human MDA-MB-231 cells assessed as cell growth inhibition; format: functional, cell-based
# Hs-578T = assay: Cytotoxicity against human Hs-578T cells assessed as cell growth inhibition; format: functional, cell-based
# BT-549 = assay: Cytotoxicity against human BT-549 cells assessed as cell growth inhibition; format: functional, cell-based
# T47D = assay: Cytotoxicity against human T47D cells assessed as cell growth inhibition; format: functional, cell-based
smiles,measurement,setting,value
COc1cccc2c1C(=O)c1c(O)c3c(c(O)c1C2=O)C[C@@](O)(C(=O)CO)C[C@@H]3O[C@H]1C[C@H](N)[C@H](O)[C@H](C)O1 [DOXORUBICIN],pIC50,[1],6.11
same,pIC50,[2],6.85
O=C(Nc1ccc(NS(=O)(=O)c2ccccc2)cc1)C12CC3CC(CC(C3)C1)C2,inhibition (INH),[3],97.88%
O=C(n1ccc2cc(OS(=O)(=O)c3ccccc3)ccc21)C12CC3CC(CC(C3)C1)C2,inhibition (INH),[3],88%
O=C(Nc1ccc(OS(=O)(=O)c2ccc(F)cc2)cc1)C1CCCCC1,pIC50,HT-29 [4],5.33
O=C(n1ccc2cc(OS(=O)(=O)c3ccc(F)cc3)ccc21)C12CC3CC(CC(C3)C1)C2,inhibition (INH),[3],86%
O=c1[nH]cc(F)c(=O)[nH]1 [FLUOROURACIL],pIC50,CCRF-CEM,5.00
same,pIC50,HL-60(TB),5.64
same,pIC50,K562,5.45
same,pIC50,MOLT-4,6.46
same,pIC50,RPMI-8226,7.40
same,pIC50,A549,6.74
same,pIC50,HOP-62,6.41
same,pIC50,HOP-92,4.11
same,pIC50,NCI-H226,4.26
same,pIC50,NCI-H23,6.48
same,pIC50,NCI-H460,7.30
same,pIC50,NCI-H522,5.14
same,pIC50,COLO 205,6.82
same,pIC50,HCC 2998,7.30
same,pIC50,HCT-116,6.66
same,pIC50,HCT-15,6.96
same,pIC50,HT-29 [5],6.77
same,pIC50,KM12,6.68
same,pIC50,SW-620,6.04
same,pIC50,SF-268,5.79
same,pIC50,SF-539,7.22
same,pIC50,SNB-19,5.42
same,pIC50,SNB-75,4.10
same,pIC50,U-251,6.04
same,pIC50,Malme-3M,7.30
same,pIC50,M14,6.01
same,pIC50,MDA-MB-435,7.15
same,pIC50,SK-MEL-2,4.25
same,pIC50,SK-MEL-28,5.99
same,pIC50,SK-MEL-5,6.34
same,pIC50,UACC-257,5.45
same,pIC50,UACC-62,6.28
same,pIC50,IGROV-1,5.91
same,pIC50,OVCAR-3,8.00
same,pIC50,OVCAR-4,5.35
same,pIC50,OVCAR-5,4.96
same,pIC50,OVCAR-8,5.76
same,pIC50,NCI/ADR-RES,6.51
same,pIC50,SK-OV-3,4.66
same,pIC50,786-0,6.14
same,pIC50,A498,6.46
same,pIC50,ACHN,6.57
same,pIC50,CAKI-1,7.15
same,pIC50,RXF 393,5.58
same,pIC50,SN12C,6.31
same,pIC50,TK-10,5.95
same,pIC50,UO-31,5.85
same,pIC50,PC-3,5.63
same,pIC50,DU-145,6.44
same,pIC50,MCF7,7.15
same,pIC50,MDA-MB-231,5.18
same,pIC50,Hs-578T,5.01
same,pIC50,BT-549,4.97
same,pIC50,T47D,5.09
